Laboratory results from patent US11672251B2, “Herbicidally active pyridyl-/pyrimidyl-pyrimidine derivatives” (Syngenta Participations AG, priority 2017, dated 2023).

What was measured:
Assay type in all cases: in vivo
[1] = test system: Amaranthus retroflexus (AMARE); assay: B2 post-emergence herbicidal activity; details: Test B2a; post-emergence (sprayed after 8 days cultivation); rate 1000 g/ha; evaluated after 13 days; scale 5=total damage to plant, 0=no damage to plant
Description: (§1) Seeds of a variety of test species were sown in standard soil in pots: Triticum aestivium (TRZAW), Avena fatua (AVEFA), Alopecurus myosuroides (ALOMY), Echinochloa crus-galli (ECHCG), Lolium perenne (LOLPE), Zea Mays (ZEAMX), Abutilon theophrasti (ABUTH), Amaranthus retroflexus (AMARE) and Setaria faberi (SETFA). After 8 days cultivation (post-emergence) under controlled conditions in a glasshouse (at 24/16° C., day/night; 14 hours light; 65% humidity), the plants were sprayed with an aqueous spray solution derived from the formulation of the technical active ingredient in acetone/water (50:50) solution containing 0.5% Tween 20 (polyoxyethelyene sorbitan monolaurate, CAS RN 9005-64-5). The test plants were then grown in a glasshouse under controlled conditions (at 24/16° C., day/night; 14 hours light; 65% humidity) and watered twice daily. After 13 days, the test was evaluated (5=total damage to plant; 0=no damage to plant).

Setaria faberi (SETFA) [2] = assay: B2 post-emergence herbicidal activity; details: post-emergence (sprayed after 8 days cultivation), rate 1000 g/ha, evaluated after 13 days, scale 5=total damage to plant, 0=no damage to plant
Description: as §1

Zea Mays (ZEAMX) [3] = assay: B2 post-emergence herbicidal activity; details: Test B2a; post-emergence (sprayed after 8 days cultivation); rate 1000 g/ha; evaluated after 13 days; scale 5=total damage to plant, 0=no damage to plant
Description: as §1

[4] = test system: Abutilon theophrasti (ABUTH); assay: B2 post-emergence herbicidal activity; details: Test B2a; post-emergence (sprayed after 8 days cultivation); rate 1000 g/ha; evaluated after 13 days; scale 5=total damage to plant, 0=no damage to plant
Description: as §1

Lolium perenne (LOLPE) [5] = assay: B2 post-emergence herbicidal activity; details: post-emergence (sprayed after 8 days cultivation), rate 1000 g/ha, evaluated after 13 days, scale 5=total damage to plant, 0=no damage to plant
Description: as §1

[6] = test system: Echinochloa crus-galli (ECHCG); assay: B2 post-emergence herbicidal activity; details: post-emergence (sprayed after 8 days cultivation), rate 1000 g/ha, evaluated after 13 days, scale 5=total damage to plant, 0=no damage to plant
Description: as §1

[7] = test system: Amaranthus retroflexus (AMARE); assay: B1 pre-emergence herbicidal activity; details: Test 1a, rate 1000 g/ha, evaluated after 13 days, scale 5=total damage to plant, 0=no damage to plant
Description: as §1, with “After” for “After 8 days”, “for one day (pre-emergence)” for “(post-emergence)”

Setaria faberi (SETFA) [8] = assay: B1 pre-emergence herbicidal activity; details: rate 1000 g/ha, evaluated after 13 days, scale 5=total damage to plant, 0=no damage to plant
Description: as §1, with “After” for “After 8 days”, “for one day (pre-emergence)” for “(post-emergence)”

Zea Mays (ZEAMX) [9] = assay: B1 pre-emergence herbicidal activity; details: Test 1a, rate 1000 g/ha, evaluated after 13 days, scale 5=total damage to plant, 0=no damage to plant
Description: as §1, with “After” for “After 8 days”, “for one day (pre-emergence)” for “(post-emergence)”

[10] = test system: Abutilon theophrasti (ABUTH); assay: B1 pre-emergence herbicidal activity; details: Test 1a, rate 1000 g/ha, evaluated after 13 days, scale 5=total damage to plant, 0=no damage to plant
Description: as §1, with “After” for “After 8 days”, “for one day (pre-emergence)” for “(post-emergence)”

Lolium perenne (LOLPE) [11] = assay: B1 pre-emergence herbicidal activity; details: rate 1000 g/ha, evaluated after 13 days, scale 5=total damage to plant, 0=no damage to plant
Description: as §1, with “After” for “After 8 days”, “for one day (pre-emergence)” for “(post-emergence)”

[12] = test system: Echinochloa crus-galli (ECHCG); assay: B1 pre-emergence herbicidal activity; details: rate 1000 g/ha, evaluated after 13 days, scale 5=total damage to plant, 0=no damage to plant
Description: as §1, with “After” for “After 8 days”, “for one day (pre-emergence)” for “(post-emergence)”

Avena fatua (AVEFA) [13] = assay: B2 post-emergence herbicidal activity; details: Test B2b; post-emergence (sprayed after 8 days cultivation); rate 1000 g/ha; evaluated after 13 days; scale 5=total damage to plant, 0=no damage to plant
Description: as §1

[14] = test system: Alopecurus myosuroides (ALOMY); assay: B2 post-emergence herbicidal activity; details: Test B2b; post-emergence (sprayed after 8 days cultivation); rate 1000 g/ha; evaluated after 13 days; scale 5=total damage to plant, 0=no damage to plant
Description: as §1

[15] = test system: Triticum aestivium (TRZAW); assay: B2 post-emergence herbicidal activity; details: Test B2b; post-emergence (sprayed after 8 days cultivation); rate 1000 g/ha; evaluated after 13 days; scale 5=total damage to plant, 0=no damage to plant
Description: as §1

Avena fatua (AVEFA) [16] = assay: B1 pre-emergence herbicidal activity; details: Test 1b, rate 1000 g/ha, evaluated after 13 days, scale 5=total damage to plant, 0=no damage to plant
Description: as §1, with “After” for “After 8 days”, “for one day (pre-emergence)” for “(post-emergence)”

[17] = test system: Alopecurus myosuroides (ALOMY); assay: B1 pre-emergence herbicidal activity; details: Test 1b, rate 1000 g/ha, evaluated after 13 days, scale 5=total damage to plant, 0=no damage to plant
Description: as §1, with “After” for “After 8 days”, “for one day (pre-emergence)” for “(post-emergence)”

[18] = test system: Triticum aestivium (TRZAW); assay: B1 pre-emergence herbicidal activity; details: Test 1b, rate 1000 g/ha, evaluated after 13 days, scale 5=total damage to plant, 0=no damage to plant
Description: as §1, with “After” for “After 8 days”, “for one day (pre-emergence)” for “(post-emergence)”

CNc1cnc(-c2cncc(F)c2)nc1C [Compound D1, 2-(5-fluoro-3-pyridyl)-N,4-dimethyl-pyrimidin-5-amine]
Control after post-emergence application, damage score: AMARE [1]: 0
Control after post-emergence application, damage score: SETFA (Setaria faberi (SETFA) [2]; Test B2a): 3
Control after post-emergence application, damage score: ZEAMX (Zea Mays (ZEAMX) [3]): 1
Control after post-emergence application, damage score: ABUTH [4]: 0
Control after post-emergence application, damage score: LOLPE (Lolium perenne (LOLPE) [5]; Test B2a): 1
Control after post-emergence application, damage score: ECHCG ([6]; Test B2a): 2
Control after pre-emergence application, damage score: AMARE [7]: 1
Control after pre-emergence application, damage score: SETFA (Setaria faberi (SETFA) [8]; Test 1a): 3
Control after pre-emergence application, damage score: ZEAMX (Zea Mays (ZEAMX) [9]): 0
Control after pre-emergence application, damage score: ABUTH [10]: 1
Control after pre-emergence application, damage score: LOLPE (Lolium perenne (LOLPE) [11]; Test 1a): 0
Control after pre-emergence application, damage score: ECHCG ([12]; Test 1a): 1

Cc1nc(-c2cncc(F)c2)ncc1N [Compound D2, 2-(5-fluoro-3-pyridyl)-4-methyl-pyrimidin-5-amine]
Control after post-emergence application, damage score: AMARE [1]: 1
Control after post-emergence application, damage score: SETFA (Setaria faberi (SETFA) [2]; Test B2a): 3
Control after post-emergence application, damage score: ZEAMX (Zea Mays (ZEAMX) [3]): 1
Control after post-emergence application, damage score: ABUTH [4]: 1
Control after post-emergence application, damage score: LOLPE (Lolium perenne (LOLPE) [5]; Test B2a): 1
Control after post-emergence application, damage score: ECHCG ([6]; Test B2a): 2
Control after pre-emergence application, damage score: AMARE [7]: 1
Control after pre-emergence application, damage score: SETFA (Setaria faberi (SETFA) [8]; Test 1a): 2
Control after pre-emergence application, damage score: ZEAMX (Zea Mays (ZEAMX) [9]): 0
Control after pre-emergence application, damage score: ABUTH [10]: 1
Control after pre-emergence application, damage score: LOLPE (Lolium perenne (LOLPE) [11]; Test 1a): 0
Control after pre-emergence application, damage score: ECHCG ([12]; Test 1a): 1

CCCNc1cnc(-c2cncc(F)c2)nc1C(F)(F)F [Compound D13, 2-(5-fluoro-3-pyridyl)-N-propyl-4-(trifluoromethyl)pyrimidin-5-amine]
Control after post-emergence application, damage score: SETFA (Setaria faberi (SETFA) [2]; Test B2b): 4
Control after post-emergence application, damage score: AVEFA (Avena fatua (AVEFA) [13]): 3
Control after post-emergence application, damage score: LOLPE (Lolium perenne (LOLPE) [5]; Test B2b): 1
Control after post-emergence application, damage score: ALOMY [14]: 0
Control after post-emergence application, damage score: TRAZW [15]: 0
Control after post-emergence application, damage score: ECHCG ([6]; Test B2b): 4
Control after pre-emergence application, damage score: SETFA (Setaria faberi (SETFA) [8]; Test 1b): 2
Control after pre-emergence application, damage score: AVEFA (Avena fatua (AVEFA) [16]): 0
Control after pre-emergence application, damage score: LOLPE (Lolium perenne (LOLPE) [11]; Test 1b): 1
Control after pre-emergence application, damage score: ALOMY [17]: 0
Control after pre-emergence application, damage score: TRAZW [18]: 1
Control after pre-emergence application, damage score: ECHCG ([12]; Test 1b): 1

CCCN(CCC)c1cnc(-c2cncc(F)c2)nc1C(F)(F)F [Compound D14, 2-(5-fluoro-3-pyridyl)-N,N-dipropyl-4-(trifluoromethyl)pyrimidin-5-amine]
Control after post-emergence application, damage score: SETFA (Setaria faberi (SETFA) [2]; Test B2b): 4
Control after post-emergence application, damage score: AVEFA (Avena fatua (AVEFA) [13]): 3
Control after post-emergence application, damage score: LOLPE (Lolium perenne (LOLPE) [5]; Test B2b): 2
Control after post-emergence application, damage score: ALOMY [14]: 1
Control after post-emergence application, damage score: TRAZW [15]: 0
Control after post-emergence application, damage score: ECHCG ([6]; Test B2b): 4
Control after pre-emergence application, damage score: SETFA (Setaria faberi (SETFA) [8]; Test 1b): 2
Control after pre-emergence application, damage score: AVEFA (Avena fatua (AVEFA) [16]): 0
Control after pre-emergence application, damage score: LOLPE (Lolium perenne (LOLPE) [11]; Test 1b): 1
Control after pre-emergence application, damage score: ALOMY [17]: 1
Control after pre-emergence application, damage score: TRAZW [18]: 1
Control after pre-emergence application, damage score: ECHCG ([12]; Test 1b): 2
